Laboratory results as given in patent US11000501B2, “Composition for preventing or treating neurological and mental disorders, containing syringaresinol” (SEOUL NATIONAL UNIVERSITY R&DB FOUNDATION, priority 2016, dated 2021).

Test system: Schaffer collateral (SC)-CA1 synapse of the hippocampus
Test: fEPSP recording in hippocampal SC-CA1 synapse (hippocampal slices)
Type: cell-based, mouse
Settings: 10 μM, applied after SYR
Protocol: A hippocampus slice (400 μm thick) was prepared in a cold dissection buffer using a vibrating machine (Vibratome, Leica, Germany) and then a CA3 region of each slice was removed surgically immediately after the slice formation. In this connection, the cold dissection buffer contained sucrose 230 mM; NaHCO3 25 mM; KCl 2.5 mM; NaH2PO4 1.25 mM; D-glucose 10 mM; Na-ascorbic acid salt 1.3 mM; MgCl2 3 mM; CaCl2 0.5 mM, 95% O2/5% CO2 and had pH 7.4. The slice was recovered in a normal ACSF (artificial cerebrospinal fluid) for 1 hour and then maintained at room temperature (23 to 25° C.) until recording. […] All electrophysiological experiments were performed in a recording chamber while the samples were immersed in the solution in a manner described previously (Song et al., 2017). Signals were amplified using a MultiClamp 700B amplifier (Molecular Devices, CA, USA) at a cut-off frequency of 2.8 kHz and were measured with a Digidata 1440A interface (Molecular Devices) at a 10 kHz sampling frequency. Data were collected using pClamp 10.2 (Molecular Devices) software. The collected data were analyzed with a program created in the lab using Igor Pro (WaveMetrics, OR, USA). To record the field excitatory post-synaptic potential (fEPSP) in the hippocampal SC-CA1 synapse, hippocampal slices were placed in the recording chamber and perfused with ACSF while oxygen was fed continuously to the ACSF. The ACSF was maintained at a temperature of 29 to 30° C. using a heater for perfusion (SH-27B, Warner Instruments, CT, USA). A synapse response was induced by stimulation with a glass pipette (0.3 to 0.5 Mohm) every 20 seconds (0.05 Hz). The synapse response was recorded using a glass pipette (3 to 4 Mohm) filled with ACSF. The intensity of the stimulus was adjusted to produce a synapse response of about ⅓ of the maximum value thereof. The slices with unstable (10%) baseline records were excluded. To investigate the effect of syringaresinol (SYR) on the synaptic transmission, the field excitatory post-synaptic potential (fEPSP) of the Schaffer collateral (SC)-CA1 synapse of the hippocampus of adult mice (4 to 6 weeks of age) was measured. After confirming the stable baseline, different concentrations of SYR were applied thereto using the perfusion solution.

## NS(=O)(=O)c1cccc2c1c([N+](=O)[O-])cc1nc(O)c(O)nc12 [NBQX, reference compound]
  block of the synaptic response (fEPSP): completely blocked
